# Laboratory results as given in BindingDB's records for patent US11583538 (Venenum Biodesign, 2023).
# Target: T1, Three-prime repair exonuclease 1 (Homo sapiens, UniProt Q9NSU2)
# T1 sequence (Q9NSU2 whole entry): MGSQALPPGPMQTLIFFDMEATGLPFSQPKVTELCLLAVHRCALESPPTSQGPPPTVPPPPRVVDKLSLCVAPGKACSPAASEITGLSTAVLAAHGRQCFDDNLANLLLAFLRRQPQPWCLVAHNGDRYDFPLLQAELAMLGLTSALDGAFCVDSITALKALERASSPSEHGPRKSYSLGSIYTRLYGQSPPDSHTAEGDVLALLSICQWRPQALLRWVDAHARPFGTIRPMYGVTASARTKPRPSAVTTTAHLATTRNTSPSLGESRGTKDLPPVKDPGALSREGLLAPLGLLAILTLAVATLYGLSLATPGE
# Assay: TREX1 Exonuclease Assay
# Protocol: For human TREX1, the nucleotide sequence of the gene construct was codon optimized for expression in the bacterial host. The sequence was incorporated into the pMAL-c5e vector (NEB) downstream of a solubility-promoting MBP (maltose binding protein) fusion partner. The fusion protein product was expressed in E. coli strain BL21 (DE3) (Millipore) and purified in a series of chromatographic steps. Initial steps were conducted using a dextrin sepharose affinity column followed by a Q-sepharose ion exchange column (both GE Healthcare). After the second column the MBP partner was removed by incubation with enterokinase (NEB). Further purification was carried out with the second application of a Q-sepharose column followed by a Superdex 75 (GE Healthcare) size exclusion column. Finally, a heparin sepharose column (GE Healthcare) was applied to remove contaminating nucleotides. […] Next, 4 μL of human TREX1 (0.5 nM), or murine TREX1 (1 nM), diluted in assay buffer (20 mM Tris pH 7.5, 5 mM MgCl, 100 μg/mL BSA, 0.002% Triton X-100, 2 mM DTT), was added to the assay plate. After incubating for 30 minutes, 4 μL of labeled DNA oligonucleotide (500 nM) in assay buffer was added to initiate TREX1 exonuclease activity. The reaction was allowed to proceed for 45 minutes at room temperature prior to the addition of 4 μL of 150 mM EDTA to halt TREX1 activity.
row,SMILES,IC50 [nM]
1,"N[C@@H]1C[C@H]2C(=O)N([C@@H](CCC(=O)O)C(=O)NCc3ccc(Cl)c(Cl)c3)CCC(CCc3ccccc3)N2C1 (stereo not given in full) [US11583538, Example 29]",< 1000
2,"N[C@@H]1C[C@H]2C(=O)N([C@H](CCC(=O)O)C(=O)NCc3ccc(Cl)c(Cl)c3)CCC(COc3cccc(F)c3)N2C1 (stereo not given in full) [US11583538, Example 77]",< 1000
3,"N[C@@H]1C[C@H]2C(=O)N([C@H](CCC(=O)O)C(=O)NCc3ccc(Cl)c(Cl)c3)CCC(COc3ccccc3F)N2C1 (stereo not given in full) [US11583538, Example 79]",< 1000
4,"CC(C)C[C@H](CNS(=O)(=O)c1ccc(Cl)c(Cl)c1)N1CCC(CCc2ccccc2)N2C[C@H](N)C[C@H]2C1=O (stereo not given in full) [US11583538, Example 81]",< 1000
5,"N[C@@H]1C[C@H]2C(=O)N([C@@H]3CCCN(S(=O)(=O)c4ccc(Cl)c(Cl)c4)C3)CCC(CCc3ccccc3)N2C1 (stereo not given in full) [US11583538, Example 83]",< 1000
6,"COC(=O)CC[C@H](C(=O)NCc1ccc(Cl)c(Cl)c1)N1CCC(COc2cccc(F)c2)N2C[C@H](N)C[C@H]2C1=O (stereo not given in full) [US11583538, Example 90]",< 1000
7,"COC(=O)CC[C@H](C(=O)NCc1ccc(Cl)c(Cl)c1)N1CCC(COc2ccc(F)cc2)N2C[C@H](N)C[C@H]2C1=O (stereo not given in full) [US11583538, Example 91]",< 1000
8,"CCOC(=O)CC[C@H](C(=O)NCc1ccc(Cl)c(Cl)c1F)N1CCC(CCc2ccccc2)N2C[C@H](N)C[C@H]2C1=O (stereo not given in full) [US11583538, Example 93]",< 1000
9,"CCOC(=O)CC[C@H](C(=O)NCc1ccc(Cl)c(Cl)n1)N1CCC(CCc2ccccc2)N2C[C@H](N)C[C@H]2C1=O (stereo not given in full) [US11583538, Example 95]",< 1000
10,"N[C@@H]1C[C@H]2C(=O)N([C@H](CCC(=O)NO)C(=O)NCc3ccc(Cl)c(Cl)c3)CCC(COc3cccc(F)c3)N2C1 (stereo not given in full) [US11583538, Example 114]",< 1000
11,"N[C@@H]1C[C@H]2C(=O)N([C@H](CSc3ccccc3O)C(=O)NCc3ccc(Cl)c(Cl)c3)CCC(CCc3ccccc3)N2C1 (stereo not given in full) [US11583538, Example 123]",< 1000
12,"N[C@@H]1C[C@H]2C(=O)N([C@H](CS(=O)(=O)c3ccccc3O)C(=O)NCc3ccc(Cl)c(Cl)c3)CCC(CCc3ccccc3)N2C1 (stereo not given in full) [US11583538, Example 124]",< 1000
13,"CC(C)C[C@H](C(=O)NCc1ccc(Cl)c(Cl)c1)N1CCC(C[S+]([O-])c2ccccc2)N2C[C@H](N)C[C@H]2C1=O (stereo not given in full) [US11583538, Example 125A]",< 1000
14,"N[C@@H]1C[C@H]2C(=O)N([C@H](CCNC(=O)C3CC3)C(=O)NCc3ccc(Cl)c(Cl)c3)CCC(CCc3ccccc3)N2C1 (stereo not given in full) [US11583538, Example 130]",< 1000
15,"N[C@@H]1C[C@H]2C(=O)N([C@H](CCC(=O)O)C(=O)NCc3cc(Cl)c(Cl)c[n+]3[O-])CCC(CCc3ccccc3)N2C1 (stereo not given in full) [US11583538, Example 134]",< 1000
